As usually defined, the melting point is the temperature, or range, at which the solid turns liquid.

Drawing on a melting point compilation (Tetko et al.; mined from patent text by program, amines drawn as free bases though some values may be those of a salt), this text covers melting point for 63 compounds.

Regarding `COc1cccc(C2(CCCCC(=O)O)CCCCC2=O)c1` (stereo not drawn), the melting point was in the range of 89 to 91 °C.
In the case of `OC[C@H]1COc2ccc3scc(Cl)c3c2O1`, the melting point fell in the range of 92 to 93 °C.
As for `Cc1cc(C(=O)Nc2ccc(OCC(C)(C)C)c(C#N)c2)nn1-c1ccc(F)cc1`, the figure is 146 to 147 °C; as for `NC(=S)c1ccc(I)cc1`, 163 to 165 °C.
As for `Cc1ccc(-c2ccccc2C(=O)Nc2ccc(C(=O)N3CCC(=O)N(CC(=O)N4CCN(C)CC4)c4ccccc43)cc2)cc1`, the figure is 161 to 163 °C; as for `Cc1nnc2cc(-c3ccccc3Cl)c3cc(Cl)ccc3n12`, 257 to 259 °C.
The compound `CC(C)(C)C(=O)SCC1CCCCCCCSC[C@@H](C(=O)OCc2ccccc2)NC1=O` (stereo partly drawn) yielded a melting point of 135 to 137 °C.
As for `COC(=O)C(CSC(c1ccccc1)c1ccccc1)NC(=O)C(=O)NCCSC(c1ccccc1)c1ccccc1` (stereo not drawn), the figure is 131 °C.
As for `O=C(O)C1=C(C(=O)Nc2ccc(Br)cc2F)CCCC1`, the figure is 98 to 99 °C; as for `N#CCCn1cccc1C1=CC(=O)c2ccccc2C1=O`, 127 to 128 °C.
As for `CCOc1nn(C(=O)NS(=O)(=O)Cl)c(=O)n1C`, the figure is 106 °C.
`O=C(Cc1ccccc1)N[C@H]1CN(OCc2ccccc2)C1=O` had a melting point of 130 to 131 °C.
As for `COc1cccc(Oc2c(NS(=O)(=O)c3ccc(C(C)(C)C)cc3)ncnc2OCc2ccccn2)c1`, the figure is 206 to 208 °C; as for `CCc1nc2c(N)nc3cc(CCC#N)ccc3c2n1CC1CCOCC1`, 273 to 275 °C.
Regarding `CCOC(=O)CN1CCN(CCOc2cc3c(Nc4cccc(Br)c4)ncnc3cc2OC)CC1`, the melting point was 155 °C.
For `CCOC(=O)c1cc(NCc2ccccc2)c(Nc2ccc(OC)cc2)c(S(N)(=O)=O)c1`, the melting point was 145 °C.
As for `CCn1c(=O)c(C)cc2cnc(S(C)=O)nc21` (stereo not drawn), the figure is 148 to 150 °C.
Compound `O=C1c2ccccc2C(=O)c2c1cccc2N1CCC(O)CC1` had a melting point of 145 °C.
`CC(NOCc1ccccc1)c1cc2ccccc2s1` (stereo not drawn): the melting point was 55 to 56 °C.
As for `O=C(Nc1cccnc1)N1CCc2cc(-c3ccccc3)ccc21`, the figure is 241 to 242 °C.
As for `CS(=O)(=O)N1CCC(c2nc3cc(-c4ccc(-n5cnnn5)cc4F)ccc3o2)CC1`, the figure is 209 to 212 °C; as for `COc1cc(Nc2c(C#N)cnc3cc(/C=C/CCN4CCOCC4)ccc23)cc(OC)c1OC`, 128 to 130 °C.
In the case of `Cc1cc(Cl)ccc1Cn1nc(OC(C)C)cc1CCCOc1ncccc1CC(=O)O`, the melting point lay in the range of 97 to 98 °C.
`Cc1ccc(Cn2nc(C(=O)O)cc2-c2ccc(F)cc2)cc1Cl` returned a melting point of 120 °C.
As for `CC(C)(C)OC(=O)NCCSCC1(C)NC(=O)NC1=O` (stereo not drawn), the figure is 134 to 136 °C; as for `Cc1ccc(S(=O)(=O)OCC2Cc3cccc(-c4ccc(Cl)cc4)c3O2)cc1` (stereo not drawn), 130 to 133 °C.
As for `COc1ccc(NS(=O)(=O)c2ccc(N3CCC(=O)CC3)cc2)cc1OC`, the figure is 50 to 56 °C; as for `CC(CO)Oc1cc(Oc2ccc(S(C)(=O)=O)cc2)cc2cc(C3=NCC(CC(N)=O)S3)[nH]c12` (stereo not drawn), 137 to 142 °C.
For the compound `CCCCn1ccc(-c2ccc(Oc3ccnc(C)c3)cc2F)c(C#N)c1=O`, the melting point came out at 127 °C.
Compound `O=C(NC1CCN(CCc2[nH]c(=O)[nH]c2-c2ccc(F)cc2)CC1)c1ccccc1` had a melting point of 218 to 220 °C.
With `COc1cc(F)ccc1N1CCN(CCCn2c(=O)[nH]c3c(c2=O)CCCC3)CC1`, the melting point was in the range of 230 to 232 °C.
As for `CCOC(=O)c1ncn(-c2ccc(Cl)c(Cl)c2)c1C`, the figure is 163 to 164 °C.
For the compound `COc1ccc2c(c1)c(CC(=O)N(O)C(C)C)c(C)n2C(=O)c1ccc(Cl)cc1`, the melting point lay within 198 to 199 °C.
For `COc1ccc2ccccc2c1C(Nc1ccccc1C)C(=O)O` (stereo not drawn), the melting point is 188 °C.
Regarding `Nc1ncc(-c2ccc(=O)n(Cc3ccccc3)n2)c(-c2ccccc2)n1`, the melting point was in the range of 229 to 230 °C.
As for `O=C(/C=C/c1ccc2ccccc2c1)Nc1cc(Cl)c(Cl)cc1S(=O)(=O)O`, the figure is 229 °C; as for `S=C(NCCCN1CCCC1)NCCN(Cc1ccc(Cl)c(Cl)c1)c1ccc(Br)cn1`, 123 to 125 °C; as for `Cc1nn(-c2ccc(C(F)(F)F)cn2)cc1CCCOc1cc(CC(=O)O)n(C)n1`, 143 to 144 °C.
The compound `COc1cc(CCCO)cc2c(O)c(C(=O)NCc3ccc(Cl)cc3)cnc12` returned a melting point of 201 to 204 °C.
As for `Cc1c(Br)cc(Br)c(NC(=O)CBr)c1Br`, the figure is 207 to 209 °C; as for `N#Cc1ccc(OCCc2cccc(F)c2)cc1`, 79 to 81 °C; as for `CCC(=O)Nc1nn(C)c2c1sc1ccccc12`, 88 to 89 °C.
As for `Cc1ccc([C@@H]2c3c(C)c(N4CCC(c5ccccc5)CC4)c(C)c(C)c3OC2(C)C)cc1`, the figure is 137 to 140 °C; as for `CNc1nc(-c2ccccc2)c(-c2nc3ccccc3c(=O)n2-c2ccccc2)s1`, 224 to 225 °C; as for `Cn1ncc(Cl)c(NCCCN2CCC(c3noc4cc(F)ccc34)CC2)c1=O`, 117 to 119 °C.
As for `CC(=O)OC1CCC2C3CCC4C(=O)CCCC4(C)C3CCC12C` (stereo not drawn), the figure is 160 to 163 °C; as for `CCOc1nsnc1O`, 104 to 106 °C.
Turning to `O=S1(=O)c2cccc3cccc(c23)N1CCN1CCC(=Cc2cc3cc(F)ccc3[nH]2)CC1`, the melting point amounted to 160 °C.
Consider `CCN(CC)c1ccc(C(O)C#Cc2ccc(C(=O)O)cc2)cc1C(C)C` (stereo not drawn), for which the melting point came out at 145 °C.
As for `CC(O)Cn1nc(Br)c([N+](=O)[O-])c1NCc1ccccc1` (stereo not drawn), the figure is 81.3 °C.
The compound `Cc1ccc(S(=O)(=O)N(CC(=O)OCc2ccccc2)c2ccc(Cl)cc2C(=O)c2ccccc2Cl)cc1` showed a melting point of 99 to 101 °C.
As for `CN1CCC(O)(c2cccc3[nH]ccc23)CC1`, the figure is 205 to 206 °C; as for `CCOC(=O)c1ccc(NC(=O)c2cccnc2)cc1`, 125 to 127 °C.
Consider `N#Cc1cnc2cnc(F)cc2c1Cl`, for which the melting point was 150 to 155 °C.
As for `COc1cc(NC(=O)c2cc(C(C)C)c(C(C)C)o2)ccc1C(=O)O`, the figure is 136 to 137 °C.
For the compound `COc1ccc(S(=O)(=O)N2C(=O)C(O[Si](C)(C)C)(c3ccccc3F)c3cc(Cl)ccc32)c(OC)c1` (stereo not drawn), the melting point lay within 184 to 186 °C.
As for `O=C(O)c1ccc(C=Cc2cc(=O)cc(-c3ccccc3)o2)cc1`, the figure is above 300 °C.
Compound `Nc1ccc([N+](=O)[O-])cc1OCCc1cccc2ccccc12` displayed a melting point of 151 to 153 °C.
`COc1ccccc1-n1c(=O)[nH]c2c(C(N)=O)nc(-c3cccc4[nH]ncc34)nc21` yielded a melting point of 280 °C.
As for `O=C1CCCN1C(=O)Oc1cccc([N+](=O)[O-])c1`, the figure is 130 to 131 °C.
Compound `NNc1ccc(CS(N)(=O)=O)cc1` registered a melting point of 156 to 158 °C.
As for `CCOC(=O)c1nc2ncnc(NCc3ccccc3)c2[nH]1`, the figure is 181 to 185 °C.
Compound `CC(C)(C)OC(=O)NCC(Cl)c1ccsc1` (stereo not drawn) gave a melting point of 63 to 65 °C.
